Here are results for one compound from patent US20050171119A1, “Pharmaceutical formulations with modified release” (UCB, S.A., priority 2002, published 2005).

A short description of series [1]: Administration of 2 times 15 mg of efletirizine in solution with a 12-hour interval. It counts as in vivo, healthy volunteers. The following applies: human, plasma, oral, 2 times 15 mg in solution; for Cmax / Tmax: 15 mg. The method, then:
Two times 15 mg of efletirizine in solution were administered to 12 healthy volunteers, with a 12-hour interval.

Series [2] can be described thus: Administration of 60 mg IR efletirizine gelatin capsule: influence of a meal. It is filed as in vivo, patients. The following applies: for AUC / Cmax / Tmax: human, in vivo, oral, 60 mg, 60 mg gelatin capsule. Here is the method:
A gelatin capsule containing 60 mg of efletirizine was administered to 20 fasting patients and to 22 patients who had eaten a standardized fatty meal beforehand.

Series [3] is described as follows: Crossover trial: 10 mg IR solution plus 25 mg PR tablet J, fasting or after a meal, vs 15 mg IR solution twice. The following applies: human, plasma, oral, IR solution 15 mg × 2, 12-hour interval; for Cmax / Tmax: 15 mg. It is filed as in vivo, human volunteers. The method, then: In a crossover trial, 12 volunteers received 3 types of treatments: • 10 mg of IR efletirizine in the form of a solution and one PR tablet of 25 mg of efletirizine (J) while fasting; • 10 mg of IR efletirizine in the form of a solution and one PR tablet of 25 mg of efletirizine (J) after a standardized fatty meal; • 15 mg of IR efletirizine in the form of a solution, taken twice with a 12-hour interval
The first 3 components are granulated. The last 3 are then added and the mixture is compressed. The tablet J is a repeat of the composition of the tablet F, to which a granulating agent, Povidone K30™, has been added.

The target in the next series is histamine H1 receptor (Homo sapiens, UniProt P35367). The following applies: background statement; cited from earlier work.
histamine H1 receptor, sequence (P35367 whole entry, species assumed): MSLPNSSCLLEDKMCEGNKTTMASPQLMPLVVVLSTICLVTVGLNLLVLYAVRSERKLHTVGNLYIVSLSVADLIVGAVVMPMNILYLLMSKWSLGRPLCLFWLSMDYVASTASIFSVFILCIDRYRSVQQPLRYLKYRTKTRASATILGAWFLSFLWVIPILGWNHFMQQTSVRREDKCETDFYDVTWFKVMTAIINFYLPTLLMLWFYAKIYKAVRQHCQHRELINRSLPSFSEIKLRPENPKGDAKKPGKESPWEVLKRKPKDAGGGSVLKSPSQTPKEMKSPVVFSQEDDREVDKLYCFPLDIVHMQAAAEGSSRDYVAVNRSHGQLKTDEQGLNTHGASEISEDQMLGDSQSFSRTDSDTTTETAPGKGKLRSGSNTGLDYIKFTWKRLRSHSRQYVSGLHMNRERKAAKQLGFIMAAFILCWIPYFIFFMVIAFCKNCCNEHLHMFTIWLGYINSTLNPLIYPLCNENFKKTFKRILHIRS
The mark [4] stands for this setting: second dose, read-out: Cmax (2).
Setting [5] is: second dose, read-out: tmax (2).
Setting [6] is: 60 mg IR gelatin capsule, after a meal vs fasting.
Setting [7] is: after a standardized fatty meal.

In the case of `O=C(O)COCCN1CCN(C(c2ccc(F)cc2)c2ccc(F)cc2)CC1` [efletirizine, 2-[2-[4-[Bis(4-fluorophenyl)methyl]-1-piperazinyl]-ethoxy]acetic acid], the Cmax – broadly, the peak of the concentration-time curve – in series [1] (first dose, read-out: Cmax(1)) came out at 0.307 µg/mL; in series [1] (setting [4]) it was 0.305 µg/mL; in series [2] (setting [7]), 0.855 µg/mL; in series [2] (fasting), 1.47 µg/mL; in series [3] (first dose, read-out: Cmax (1)), 0.307 µg/mL; in series [3] (setting [4]) it was 0.305 µg/mL. Also, the Tmax (usually the time at which the peak concentration occurs) is 0.6 h in series [1] (first dose, read-out: tmax (1)); 12.6 h in series [1] (setting [5]); 3.03 h in series [2] (setting [7]); 0.77 h in series [2] (fasting); 0.6 h in series [3] (first dose, read-out: tmax (1)); 12.6 h in series [3] (setting [5]). The AUC (usually the area under the concentration-time curve, a measure of exposure) in series [1] worked out at 2.8 µg·h/mL; in series [2] (setting [7]), 5.78 µg·h/mL; in series [2] (fasting), 6.35 µg·h/mL; in series [3], 2.8 µg·h/mL. Moreover, the “decrease of Cmax by having a meal” value in series [2] (setting [6]) is listed as 42%. In series [2] (setting [6]), the “influence of a meal on bioavailability” value is “decreased”. Besides, on histamine H1 receptor, the “affinity in vitro for H1 receptors” value is listed as “great affinity”. The “selectivity in vitro for H1 receptors” value on histamine H1 receptor is “great selectivity”.
